Results as given in article PMC12040169 (PLOS Biology, 2025).

Assay: in vitro
Conditions: human, hela cells, % viability

Point of comparison: `COc1ccc(CN2CCC(C(=O)NC(c3ccc(OC)nc3)c3ccccc3C)CC2)cc1` (centres unmarked) [CBK081445T], viability at 28.5 h, 10 µM 86.7%. Against it:
- Cc1cccc(C2(O)CCN(C(=O)CCCc3ccncc3)CC2)c1 [CBK282506] — higher, 111%
- CC(NC(=O)CCc1cn(C)c2ccccc12)c1ccccn1 (centres unmarked) [CBK281889] — higher, 93.1%
- CNC(=O)[C@@H]1CN(Cc2ccccc2)C[C@H]1C(=O)c1ccc(F)cc1 [CBK282902] — higher, 110%
- O=c1nc(-c2ccccc2Cl)oc2ccccc12 [CBK152263] — higher, 89.9%
- O=C(c1sc2cc(Cl)ccc2c1Cl)N1CCN(Cc2ccc3c(c2)OCO3)CC1 [CBK074431] — higher, 101%
- CC(=O)NCCSc1nc2ccccc2nc1NC(C)C [CBK105618] — higher, 102%
- CCN(CCO)c1ccc(Nc2cc(-c3cccc([N+](=O)[O-])c3)ncn2)cc1 [CBK091002] — higher, 92.2%
- COc1ccc(Cl)cc1N1CCN(CCO)CC1 [CBK138339] — higher, 88.7%
- COC(=O)c1ccc2c(=O)n(CC(C)O)c(SC3CCOC3=O)nc2c1 (centres unmarked) [CBK304997] — lower, 84.7%
- COc1cccc(S(=O)(=O)Nc2nn(Cc3ccc(C)cc3)c3ccccc23)c1 [CBK048043] — higher, 89.8%
- C[C@@H]1CN(C(=O)c2cscn2)C[C@H](C)O1 [CBK200371] — higher, 90%
- N#CCCCN1CCC(Oc2nccnc2OCc2cccnc2)CC1 [CBK083171] — lower, 85.9%
- O=C(NC(=S)Nc1ccc(-c2nc3ccccc3o2)c(O)c1)c1cncc(Br)c1 [CBK264931] — higher, 97%
- CCN(C(C)COC)S(=O)(=O)c1ccc(C(F)(F)F)nc1 (centres unmarked) [CBK304042] — higher, 88.8%
- O=CN1C2CCC1c1cnc3cc(-c4cccc(F)c4)nn3c1C2 (centres unmarked) [CBK282269] — higher, 91.9%
- Cc1ccc([N+](=O)[O-])cc1NC(=O)CN(Cc1ccc(Cl)cc1)S(C)(=O)=O [CBK267981] — higher, 87.8%
- COc1ccc([C@@]23CC[C@@H](NS(=O)(=O)c4cccc5cccnc45)C[C@@H]2N(C)CC3)cc1OC [CBK056849T] — lower, 80.8%
- Fc1ccc(-c2cc(CC3(NCc4ccc5c(c4)OCO5)COC3)no2)cc1 [CBK289654] — higher, 109%
- Brc1ccc(C2(c3nnc(C4CCCO4)o3)CCOCC2)cc1 (centres unmarked) [CBK306258] — higher, 117%
- COCc1cc(O)nc(Cc2c(Cl)cccc2Cl)n1 [CBK022389] — higher, 96.7%
- CC(C)C(=O)Nc1cc2ccccc2c(-c2cccc(C(F)(F)F)c2)n1 [CBK085738] — higher, 95.6%
- O=C(c1ccc2ncccc2c1)N1CCC(c2ccncc2)CC1 [CBK283684] — higher, 90.3%
- CSc1nsc(SCC(=O)Nc2ccc(OC(C)=O)cc2)n1 [CBK268948] — higher, 88.1%
- O=C1NC[C@@H](CCC(=O)N2CCCCC2)N2C[C@@H](NS(=O)(=O)c3ccccc3)C[C@@H]12 [CBK289012] — higher, 92.9%
- CCOC(=O)c1c(NC(=O)NCc2cccnc2)sc2c1CCC2 [CBK307585] — higher, 87.3%
- Cc1cc2oc(C(=O)Nc3sc4c(c3C(=O)NC3CCS(=O)(=O)C3)CCC(C)C4)c(C)c2cc1C (centres unmarked) [CBK266351] — higher, 92.2%
- Cc1cn2cccc(C(=O)N3CCCCC3CCN3CCOCC3)c2n1 (centres unmarked) [CBK306518] — higher, 90.3%
- O=C(CCCc1ccccc1)Nc1ccc(O)cc1C(=O)O [CBK131699] — higher, 99.7%
- Cc1ccc2c(O)c(C(=O)NCc3cccs3)cnc2c1 [CBK159997] — lower, 78.2%
- O=C(NCc1ccc(C(F)(F)F)cc1)[C@@H]1Cc2[nH]cnc2CN1C1CCOCC1 [CBK288981] — higher, 103%
- CC(=O)Nc1ccc(S(=O)(=O)N(C)c2ccccn2)cc1Cl [CBK044789] — higher, 94.5%
- Cc1c(CN2CCCCC2CCN2CCCC2=O)oc2ccccc12 (centres unmarked) [CBK282181] — higher, 104%
- Cc1cc(NC(=O)c2cc(Cl)sc2Cl)no1 [CBK010872] — lower, 84.4%
- COc1cccc(C(=O)N2CCN(C)C(=O)C2Cc2ccccc2-c2ccccc2)c1OC (centres unmarked) [CBK285828] — higher, 109%
- O=C(c1c[nH]c2ccccc12)N1CCc2ccccc2C1 [CBK200331] — higher, 113%
- Cc1c(Br)c(C(F)(F)F)nn1CC(=O)Nc1ccc(Oc2cc([N+](=O)[O-])cc([N+](=O)[O-])c2)cc1 [CBK262558] — higher, 97.5%
- Cc1cccc(C(=O)Nc2c(C(=O)Nc3ccc(Br)cc3)cnn2-c2ccccc2)c1 [CBK264839] — higher, 113%
- CCOc1ccc2[nH]c(C(=O)NC3CCCOC3)c(C)c2c1 (centres unmarked) [CBK282529] — higher, 113%
- COc1cc(CNc2nc(Br)cn3ccnc23)cc(OC)c1OC [CBK038060] — higher, 110%
- Clc1ccc(-c2cc(NC3CCCCC3)ncn2)cc1 [CBK090902] — higher, 101%
- COC(=O)[C@H](NC(=O)C1CCN(C(=O)OCc2ccccc2)CC1)c1ccccc1 [CBK081466] — higher, 88.1%
- CCC1(CC)Cc2ccccc2-c2nc(NN)n(Cc3ccccc3)c(=O)c21 [CBK263217] — higher, 102%
- C=CCn1c(S)nnc1-c1ccc(Br)cc1 [CBK096756] — lower, 77.3%
- CC(C)(C)c1cn2c3ccccc3nc2n1CCO [CBK273412] — higher, 102%
- O=C(CC(NC(=O)c1ccccc1)c1ccccc1)Nc1cccc2ccccc12 (centres unmarked) [CBK263901] — higher, 98.9%
- COC[C@@H]1CCCN1S(=O)(=O)c1cccs1 [CBK045239] — higher, 96%
- CCOc1cccc(N2C(=O)CC(N3CCC(C(N)=O)(N4CCCCC4)CC3)C2=O)c1 (centres unmarked) [CBK263562] — higher, 99%
- CN1C[C@@H](NC(=O)Nc2ccccc2)C[C@H]1c1nc(-c2cnccn2)no1 [CBK288851] — higher, 87.5%
- Cc1ccc(S(=O)(=O)NCCOc2nc(N(C)C)nc(N3CCOCC3)n2)cc1 [CBK266705] — higher, 97%
- FC(F)(F)c1cccc(-n2cc(-c3cccnc3)nn2)c1 [CBK113053] — lower, 86%
- CCOc1ccc2c(c1)CN(CC(=O)Nc1cc(C)no1)CC2 [CBK305993] — higher, 92.9%
- CC(Cc1ccsc1)NS(=O)(=O)c1cccc(C(=O)N2CCCC2)c1 (centres unmarked) [CBK306923] — lower, 85.8%
- Nc1ncccc1C(=O)OCc1ccc(-c2ccccc2)cc1 [CBK295353] — higher, 94.2%
- COc1cc(/C=C/c2nc(O)c([N+](=O)[O-])c(=O)[nH]2)ccc1OCC(=O)N1CCOCC1 [CBK267168] — higher, 96.8%
- COc1ccc(C(=O)OC(C)(C)C)c(-c2cncc(N3CCCCC3CCO)n2)c1 (centres unmarked) [CBK037786] — higher, 104%
- Cc1ccc(Cl)cc1NC(=O)CC1NCCNC1=O (centres unmarked) [CBK267246] — higher, 97%
- CSc1nc(C(=O)N2CCCCC2c2cccc(F)c2)cs1 (centres unmarked) [CBK306732] — higher, 108%
- CCCNCC(=O)N1CN(C(=O)c2ccc(C)cc2)C(C)(C)C1 [CBK089572C] — higher, 111%
- CC(C)NC(=O)CN1C(=O)N2CCCN=C2c2ccc(Cl)cc21 [CBK284390] — higher, 96.5%
- c1ccc(CNc2nnc(-c3ccccc3)s2)cc1 [CBK074928] — higher, 87.7%
- c1csc(CNc2nccnc2-c2cccs2)c1 [CBK036602] — higher, 92.6%
- CCOC(=O)C1=NN(C(=O)c2ccc(Cl)cc2)C(O)(C(C)(C)C)C1 (centres unmarked) [CBK026308] — lower, 86%
- Cc1ccc(Nc2nc(N)nc(-c3cc4ccccc4o3)n2)cc1 [CBK288222] — higher, 105%
- O=c1[nH]n(-c2ccccc2)c(=O)n1Cc1ccccc1F [CBK122770] — higher, 95%
- COc1ccc(Nc2cc(Cl)ccc2C(=O)N2CCN(c3ncccn3)CC2)cn1 [CBK107334] — higher, 89.9%
- COCCc1nsc(N2CCC(Oc3cccnc3N(C)C)C2)n1 (centres unmarked) [CBK305418] — higher, 98.8%
- Cn1c(S)nnc1-c1ccccc1O [CBK014577] — higher, 111%
- Cc1ccccc1NC(=O)c1ccccc1Cl [CBK116485] — higher, 104%
- Cc1nc2ccc(C(=O)N(C)CCN(C)C)cn2c1N(C)C(=O)c1cccs1 [CBK146528] — higher, 120%
- CN(C)CC(=O)NC(Cc1cccs1)c1nccs1 (centres unmarked) [CBK285061] — higher, 91.1%
- COc1ccc2cc(C)c3n[nH]c(=O)n3c2c1 [CBK283765] — higher, 89%
- CCNC(=O)Nc1ccc2c(-c3cccc(C(F)(F)F)c3)ccnc2n1 [CBK070678] — higher, 93.7%
- O=C(Nc1ncc(Cc2ccc(F)cc2)s1)C1CCCCC1 [CBK058611] — higher, 105%
- Cc1ccccc1-n1ccn(C(=O)CCCOc2ccc(Cl)cc2)c1=O [CBK106573] — higher, 88.5%
- O=C(NCC(c1ccccc1)c1c[nH]c2ccccc12)Nc1ccc(Cl)cc1 (centres unmarked) [CBK269147] — higher, 91.9%
- CC(=O)Nc1nc(-c2cc3ccccc3oc2=O)cs1 [CBK287312] — higher, 106%
- O=C(CC1CCN(C(=O)CC2CCCCC2)CC1)NCc1ccccc1N1CCCC1 [CBK285962] — higher, 99.2%
- O=C(c1ccc2c(c1)OCCO2)N1CCC2(CCN(C(=O)c3cc(F)c(F)cc3F)C2)C1 (centres unmarked) [CBK131410] — higher, 98.2%
- Cc1ccc(OCc2nnc(SCc3cccc(C#N)c3)n2N)cc1C [CBK267420] — lower, 84.1%
- CCCCOc1ccc(-c2cn(CC(N)=O)cn2)cc1 [CBK009035] — higher, 110%
- COc1cc(CNc2nccnc2-c2ccc(C(=O)N3CCOCC3)cc2)cc(OC)c1 [CBK036866] — higher, 99.2%
- CN1CCN(C(=O)c2ccc(-c3cnc4[nH]c(=O)n(Cc5ccncc5)c4n3)cc2)CC1 [CBK064679] — higher, 101%
- CN(C)S(=O)(=O)c1ccc(C(=O)Nc2ccc(-c3ccccc3)cc2)cc1 [CBK264978] — higher, 96.2%
- N=C1NS(=O)(=O)NC1c1ccc(Cl)cc1 (centres unmarked) [CBK263858] — higher, 88.4%
- O=C1COc2ccccc2C/C=C/CC2(CCN(C(=O)c3c[nH]cn3)CC2)C(=O)NCCN1 [CBK291990] — higher, 98.3%
- CC1(C)N=C(c2ccc(Cl)cc2Cl)C(=S)N1 [CBK288449] — higher, 88.3%

Same assay, conditions: human, hela cells, % viability, bulk resorufin, single well

Point of comparison: `CC(C)NC(=O)Cn1cc(C(=O)COc2ccccc2)c2ccccc21` [CBK268317], viability at 28.5 h, 10 µM 82.6%. Against it:
- c1ccc(-c2ccc3c(c2)OC2(CCNCC2)O3)cc1 [CBK085501] — higher, 103%
